Here are results for 4 compounds from patent publication US20240150369A1, “CYCLIN-DEPENDENT KINASE INHIBITING COMPOUNDS FOR THE TREATMENT OF MEDICAL DISORDERS” (G1 Therapeutics, Inc., priority 2020, published 2024).

What all share (format): biochemical
The target of one experiment is CDK2/Cyclin A (Homo sapiens (Human), UniProt P24941). Nature of the experiment: CDK2/Cyclin A kinase assay (Nanosyn, Caliper microfluidic). Particulars: 12-point dose-response, singlicate, at Km for ATP; ATP 50 μM; 3 hr. On the procedure:
(§1) Selected compounds disclosed herein were tested in kinase assays by Nanosyn (Santa Clara, CA) to determine their inhibitory effect on these CDKs. The assays were performed using microfluidic kinase detection technology (Caliper Assay Platform). The compounds were tested in 12-point dose-response format in singlicate at Km for ATP. Specifics of each assay are as described below:
CDK2/Cyclin A: Enzyme concentration: 0.1 nM; ATP concentration: 50 μM; Incubation time: 3 hr.

For the next experiment, the target named is CDK2/Cyclin E (Homo sapiens (Human), UniProt P24941). Nature of the experiment: CDK2/Cyclin E kinase assay (Nanosyn, Caliper microfluidic). The settings on record: 12-point dose-response, singlicate, at Km for ATP; ATP 100 μM; 3 hr. How it is done:
as §1
CDK2/Cyclin E: Enzyme concentration: 0.15 nM; ATP concentration: 100 μM; Incubation time: 3 hr.

The target of a further experiment is CDK4/Cyclin D1 (Homo sapiens (Human), UniProt P11802). Nature of the experiment: CDK4/Cyclin D1 kinase assay (Nanosyn, Caliper microfluidic). The settings on record: 12-point dose-response, singlicate, at Km for ATP; ATP 200 μM; 3 hr. How it is done:
as §1
CDK4/Cyclin D1: Enzyme concentration: 1 nM; ATP concentration: 200 μM; Incubation time: 3 hr.

The target of a further experiment is CDK6/Cyclin D3 (Homo sapiens (Human), UniProt Q00534). Nature of the experiment: CDK6/Cyclin D3 kinase assay (Nanosyn, Caliper microfluidic). The settings on record: 12-point dose-response, singlicate, at Km for ATP; ATP 300 μM; 3 hr. On the procedure: as §1
CDK6/Cyclin D3, sequence (Q00534 whole entry): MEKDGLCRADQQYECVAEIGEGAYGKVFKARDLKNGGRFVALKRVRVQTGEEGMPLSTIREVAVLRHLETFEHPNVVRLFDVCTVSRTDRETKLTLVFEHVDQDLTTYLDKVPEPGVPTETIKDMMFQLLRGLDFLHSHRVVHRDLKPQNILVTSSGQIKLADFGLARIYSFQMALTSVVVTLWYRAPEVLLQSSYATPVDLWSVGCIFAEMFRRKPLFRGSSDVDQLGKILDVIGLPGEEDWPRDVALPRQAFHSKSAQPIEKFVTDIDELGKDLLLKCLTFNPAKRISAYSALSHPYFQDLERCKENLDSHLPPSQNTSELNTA
CDK6/Cyclin D3, sequence (P30281 whole entry partner): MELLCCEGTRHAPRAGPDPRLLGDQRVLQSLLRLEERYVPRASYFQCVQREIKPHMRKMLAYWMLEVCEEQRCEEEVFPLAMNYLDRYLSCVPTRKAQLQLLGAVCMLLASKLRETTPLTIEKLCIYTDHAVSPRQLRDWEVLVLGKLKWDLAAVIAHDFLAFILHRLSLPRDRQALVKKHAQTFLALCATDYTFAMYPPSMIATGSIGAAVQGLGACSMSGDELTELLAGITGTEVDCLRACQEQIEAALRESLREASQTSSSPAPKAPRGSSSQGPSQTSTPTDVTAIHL
CDK6/Cyclin D3: Enzyme concentration: 2 nM; ATP concentration: 300 μM; Incubation time: 3 hr.

Another experiment deals with CDK9/Cyclin T1 (Homo sapiens (Human), UniProt P50750). Nature of the experiment: CDK9/Cyclin T1 kinase assay (Nanosyn, Caliper microfluidic). The settings on record: 12-point dose-response, singlicate, at Km for ATP; ATP 10 μM; 17 hr. How it is done: as §1
CDK9/Cyclin T1, sequence (P50750 whole entry): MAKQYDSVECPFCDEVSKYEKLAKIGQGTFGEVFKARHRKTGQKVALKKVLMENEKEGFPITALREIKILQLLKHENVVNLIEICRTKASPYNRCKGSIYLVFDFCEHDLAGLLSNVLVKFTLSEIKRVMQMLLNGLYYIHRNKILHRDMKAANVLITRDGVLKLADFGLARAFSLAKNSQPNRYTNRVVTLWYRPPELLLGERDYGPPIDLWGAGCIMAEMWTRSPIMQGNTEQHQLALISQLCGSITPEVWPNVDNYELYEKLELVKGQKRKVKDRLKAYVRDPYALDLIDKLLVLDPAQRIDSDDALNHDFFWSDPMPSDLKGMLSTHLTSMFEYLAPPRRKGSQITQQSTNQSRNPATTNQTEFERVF
CDK9/Cyclin T1, sequence (O60563 whole entry partner): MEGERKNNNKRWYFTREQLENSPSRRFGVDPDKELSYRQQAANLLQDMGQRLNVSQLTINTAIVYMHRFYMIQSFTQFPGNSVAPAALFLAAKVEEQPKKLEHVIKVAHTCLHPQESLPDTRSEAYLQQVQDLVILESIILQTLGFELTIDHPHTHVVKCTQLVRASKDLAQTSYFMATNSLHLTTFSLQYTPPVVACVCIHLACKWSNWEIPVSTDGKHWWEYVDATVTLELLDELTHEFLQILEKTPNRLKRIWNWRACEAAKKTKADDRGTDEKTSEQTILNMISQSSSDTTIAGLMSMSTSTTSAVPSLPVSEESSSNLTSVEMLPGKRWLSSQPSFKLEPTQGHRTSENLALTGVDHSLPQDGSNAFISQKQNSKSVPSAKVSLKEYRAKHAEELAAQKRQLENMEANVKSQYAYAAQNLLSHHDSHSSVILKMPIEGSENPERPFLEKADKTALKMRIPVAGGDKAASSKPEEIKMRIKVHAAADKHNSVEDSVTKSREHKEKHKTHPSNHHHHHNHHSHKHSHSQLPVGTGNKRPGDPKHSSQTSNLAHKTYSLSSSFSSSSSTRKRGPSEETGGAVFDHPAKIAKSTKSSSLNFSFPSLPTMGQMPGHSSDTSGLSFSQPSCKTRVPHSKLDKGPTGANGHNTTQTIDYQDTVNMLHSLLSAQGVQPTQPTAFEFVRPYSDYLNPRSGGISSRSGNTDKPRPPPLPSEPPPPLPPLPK
CDK9/Cyclin T1: Enzyme concentration: 5 nM; ATP concentration: 10 μM; Incubation time: 17 hr.

The next experiment has as its target CDK1/Cyclin B1 (Homo sapiens (Human), UniProt P06493). The experiment is described as follows: CDK1/Cyclin B1 kinase assay (Nanosyn, Caliper microfluidic). The settings on record: 12-point dose-response, singlicate, at Km for ATP; ATP 40 μM; 3 hr. On the procedure: as §1
CDK1/Cyclin B1: Enzyme concentration: 0.08 nM; ATP concentration: 40 μM; Incubation time: 3 hr.

The target of the next experiment is CDK3-CYCLIN-E (Homo sapiens (Human), UniProt Q00526). The experiment is described as follows: CDK3-Cyclin-E kinase assay (Nanosyn, Caliper microfluidic). Particulars: 12-point dose-response, singlicate, at Km for ATP. How it is done: (§2) Selected compounds disclosed herein were tested in kinase assays by Nanosyn (Santa Clara, CA) to determine their inhibitory effect on these CDKs. The assays were performed using microfluidic kinase detection technology (Caliper Assay Platform). The compounds were tested in 12-point dose-response format in singlicate at Km for ATP.

The next experiment concerns the target CDK5-p25 (Homo sapiens (Human), UniProt Q00535). The experiment is described as follows: CDK5-p25 kinase assay (Nanosyn, Caliper microfluidic). Particulars: 12-point dose-response, singlicate, at Km for ATP. On the procedure: as §2
Another experiment has as its target CDK7 (Homo sapiens (Human), UniProt P50613). Nature of the experiment: CDK7 kinase assay (Nanosyn, Caliper microfluidic). Particulars: 12-point dose-response, singlicate, at Km for ATP. On the procedure: as §2

CDK5-p25, sequence (Q00535 whole entry): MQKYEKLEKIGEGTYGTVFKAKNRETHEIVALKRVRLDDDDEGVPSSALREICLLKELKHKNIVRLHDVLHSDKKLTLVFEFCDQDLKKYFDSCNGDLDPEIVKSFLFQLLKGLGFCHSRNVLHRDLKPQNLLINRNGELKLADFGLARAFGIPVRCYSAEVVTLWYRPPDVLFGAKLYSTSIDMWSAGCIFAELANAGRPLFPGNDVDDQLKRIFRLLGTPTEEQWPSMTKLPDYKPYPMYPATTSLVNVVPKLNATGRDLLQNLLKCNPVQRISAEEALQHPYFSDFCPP
CDK5-p25, sequence (Q15078 99-307 partner): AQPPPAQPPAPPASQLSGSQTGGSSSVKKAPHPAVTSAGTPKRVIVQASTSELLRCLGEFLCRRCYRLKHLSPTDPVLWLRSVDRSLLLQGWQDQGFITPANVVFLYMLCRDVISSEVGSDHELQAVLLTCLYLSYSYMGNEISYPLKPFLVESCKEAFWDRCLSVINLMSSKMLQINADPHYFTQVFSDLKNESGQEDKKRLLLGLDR
CDK7, sequence (P50613 whole entry): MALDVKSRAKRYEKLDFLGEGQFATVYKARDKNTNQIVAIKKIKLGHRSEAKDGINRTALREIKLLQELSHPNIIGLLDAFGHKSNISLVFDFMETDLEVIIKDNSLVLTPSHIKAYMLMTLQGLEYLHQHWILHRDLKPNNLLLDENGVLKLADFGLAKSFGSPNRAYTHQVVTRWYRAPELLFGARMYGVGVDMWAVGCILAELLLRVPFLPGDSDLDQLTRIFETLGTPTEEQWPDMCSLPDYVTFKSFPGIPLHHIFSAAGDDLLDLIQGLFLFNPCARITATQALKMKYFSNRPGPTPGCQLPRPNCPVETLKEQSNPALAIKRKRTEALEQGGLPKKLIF
CDK7, sequence (P51946 whole entry partner): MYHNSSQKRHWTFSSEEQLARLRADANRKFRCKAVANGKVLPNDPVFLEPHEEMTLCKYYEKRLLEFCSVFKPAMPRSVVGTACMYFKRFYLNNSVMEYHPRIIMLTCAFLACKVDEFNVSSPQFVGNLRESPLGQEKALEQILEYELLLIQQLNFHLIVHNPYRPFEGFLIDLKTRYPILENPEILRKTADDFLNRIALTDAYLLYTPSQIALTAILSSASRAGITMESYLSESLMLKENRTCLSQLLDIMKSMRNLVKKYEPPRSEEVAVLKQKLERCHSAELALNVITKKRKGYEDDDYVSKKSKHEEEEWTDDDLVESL
CDK7, sequence (P51948 whole entry partner): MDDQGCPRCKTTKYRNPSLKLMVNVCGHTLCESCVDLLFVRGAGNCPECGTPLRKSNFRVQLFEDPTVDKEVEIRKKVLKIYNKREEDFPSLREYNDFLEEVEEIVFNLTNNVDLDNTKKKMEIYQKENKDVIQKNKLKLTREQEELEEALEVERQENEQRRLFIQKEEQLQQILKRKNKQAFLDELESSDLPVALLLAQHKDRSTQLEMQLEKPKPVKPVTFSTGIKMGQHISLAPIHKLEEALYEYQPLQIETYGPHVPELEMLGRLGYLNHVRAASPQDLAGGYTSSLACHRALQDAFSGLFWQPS
CDK4/Cyclin D1, sequence (P11802 whole entry): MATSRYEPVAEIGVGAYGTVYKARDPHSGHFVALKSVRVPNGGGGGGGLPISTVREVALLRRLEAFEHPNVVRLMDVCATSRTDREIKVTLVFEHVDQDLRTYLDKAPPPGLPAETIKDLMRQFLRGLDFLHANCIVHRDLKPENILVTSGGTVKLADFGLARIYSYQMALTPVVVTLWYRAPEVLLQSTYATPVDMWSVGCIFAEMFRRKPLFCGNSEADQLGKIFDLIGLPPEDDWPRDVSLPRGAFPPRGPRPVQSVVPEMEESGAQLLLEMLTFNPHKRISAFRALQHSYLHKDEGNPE
CDK4/Cyclin D1, sequence (P24385 whole entry partner): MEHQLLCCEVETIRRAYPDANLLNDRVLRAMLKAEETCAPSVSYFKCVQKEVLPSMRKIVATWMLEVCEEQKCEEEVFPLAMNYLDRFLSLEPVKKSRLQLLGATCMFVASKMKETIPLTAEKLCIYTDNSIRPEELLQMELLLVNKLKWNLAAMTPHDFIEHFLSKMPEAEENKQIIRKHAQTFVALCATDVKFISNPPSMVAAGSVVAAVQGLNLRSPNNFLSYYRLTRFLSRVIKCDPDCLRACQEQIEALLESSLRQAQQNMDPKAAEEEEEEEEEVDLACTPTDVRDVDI
CDK1/Cyclin B1, sequence (P06493 whole entry): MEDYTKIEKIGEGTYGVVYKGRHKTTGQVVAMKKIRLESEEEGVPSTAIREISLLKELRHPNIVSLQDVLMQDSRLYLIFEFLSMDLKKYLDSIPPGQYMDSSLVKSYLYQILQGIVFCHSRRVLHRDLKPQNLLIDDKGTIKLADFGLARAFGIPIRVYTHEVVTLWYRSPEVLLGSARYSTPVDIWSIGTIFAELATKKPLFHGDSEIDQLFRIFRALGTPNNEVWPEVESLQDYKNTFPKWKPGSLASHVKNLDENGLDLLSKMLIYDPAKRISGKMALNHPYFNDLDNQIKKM
CDK1/Cyclin B1, sequence (P14635 whole entry partner): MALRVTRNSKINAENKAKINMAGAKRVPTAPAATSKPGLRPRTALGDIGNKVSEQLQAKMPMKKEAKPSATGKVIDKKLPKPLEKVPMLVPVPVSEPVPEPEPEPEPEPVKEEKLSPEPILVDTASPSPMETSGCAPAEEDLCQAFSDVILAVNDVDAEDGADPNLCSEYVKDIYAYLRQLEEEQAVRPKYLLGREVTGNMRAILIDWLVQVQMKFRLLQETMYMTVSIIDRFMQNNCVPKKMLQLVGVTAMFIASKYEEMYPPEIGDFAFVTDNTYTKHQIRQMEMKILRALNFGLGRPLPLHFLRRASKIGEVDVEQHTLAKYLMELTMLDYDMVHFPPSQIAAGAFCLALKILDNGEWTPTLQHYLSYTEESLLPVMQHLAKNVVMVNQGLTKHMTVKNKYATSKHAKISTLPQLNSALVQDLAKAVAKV

Consider `NS(=O)(=O)c1ccc(Nc2ncc3cc4n(c3n2)C2(CCCCC2)C(=O)NN4)cc1` [Compound 3, 4-((3′-oxo-2′,3′-dihydro-1′H-spiro[cyclohexane-1,4′-pyrimido[5′,4′:4,5]pyrrolo[2,1-c][1,2,4]triazin]-7′-yl)amino)benzenesulfonamide], for which the IC50 (commonly the midpoint of a concentration-inhibition curve) was 2.5 nM at CDK2/Cyclin A; 0.56 nM on CDK2/Cyclin E; 130 nM at CDK4/Cyclin D1; 350 nM at CDK6/Cyclin D3; 62 nM against CDK9/Cyclin T1; 33 nM against CDK1/Cyclin B1. In addition, the IC50 was 9.9 nM against CDK3-CYCLIN-E, 14 nM on CDK5-p25 and more than 1000 nM against CDK7.
`CN1NC(=O)C2(CCCCC2)n2c1cc1cnc(Nc3ccc(S(N)(=O)=O)cc3)nc12` [Compound 12, 4-((1′-methyl-3′-oxo-2′,3′-dihydro-1′H-spiro[cyclohexane-1,4′-pyrimido[5′,4′:4,5]pyrrolo[2,1-c][1,2,4]triazin]-7′-yl)amino)benzenesulfonamide]: the IC50 against CDK2/Cyclin A turned out to be 9.2 nM; at CDK2/Cyclin E, 13 nM; against CDK4/Cyclin D1, 28 nM; against CDK6/Cyclin D3, 160 nM; at CDK9/Cyclin T1, 180 nM; against CDK1/Cyclin B1 it was 88 nM. Also, the values for the IC50 at CDK3-CYCLIN-E, on CDK5-p25 and against CDK7 were 59 nM, 140 nM and more than 1000 nM, respectively.
Turning to `NS(=O)(=O)c1ccc(Nc2ncc3cc4n(c3n2)C2(CCCCC2)C(=O)N[C@H]4CF)cc1` [Compound 18, (R)-4-((6′-(fluoromethyl)-8′-oxo-7′,8′-dihydro-6′H-spiro[cyclohexane-1,9′-pyrazino[1′,2′:1,5]pyrrolo[2,3-d]pyrimidin]-2′-yl)amino)benzenesulfonamide], the IC50 at CDK2/Cyclin A amounted to 1.7 nM; at CDK2/Cyclin E it was 2.7 nM; against CDK4/Cyclin D1, 33 nM; against CDK6/Cyclin D3 it was 150 nM; on CDK9/Cyclin T1 it was 10 nM; against CDK1/Cyclin B1, 20 nM. Besides, the IC50 stood at 18 nM at CDK3-CYCLIN-E, 17 nM on CDK5-p25 and 840 nM against CDK7.
For `C[C@@H]1NC(=O)C2(CCCCC2)n2c1cc1cnc(Nc3ccc(S(N)(=O)=O)cc3)nc12` [Compound 19, (S)-4-((6′-methyl-8′-oxo-7′,8′-dihydro-6′H-spiro[cyclohexane-1,9′-pyrazino[1′,2′:1,5]pyrrolo[2,3-d]pyrimidin]-2′-yl)amino)benzenesulfonamide], the IC50 at CDK2/Cyclin A was determined as 4.3 nM; against CDK2/Cyclin E it was 4.8 nM; on CDK4/Cyclin D1 it was 40 nM; against CDK6/Cyclin D3, 210 nM; at CDK9/Cyclin T1 it was 22 nM; against CDK1/Cyclin B1, 40 nM. For the same compound, the IC50 at CDK3-CYCLIN-E amounted to 34 nM; against CDK5-p25, 62 nM; against CDK7, 800 nM.
